Experimental data from PubChem BioAssay AID588566 (The Scripps Research Institute Molecular Screening Center, 2011).

Biological target: Neuropeptides B/W receptor type 1 (Homo sapiens) (UniProt P48145)
Test: human NPBW1 receptor blockade, IC50 – cell-based, fluorescence, dose response, set 5, late-stage follow-up (AID 588566)
Conditions: GPR7-expressing cells, fluorescence antagonist assay

Sequence of Neuropeptides B/W receptor type 1 (Homo sapiens) (P48145 whole entry, looked up): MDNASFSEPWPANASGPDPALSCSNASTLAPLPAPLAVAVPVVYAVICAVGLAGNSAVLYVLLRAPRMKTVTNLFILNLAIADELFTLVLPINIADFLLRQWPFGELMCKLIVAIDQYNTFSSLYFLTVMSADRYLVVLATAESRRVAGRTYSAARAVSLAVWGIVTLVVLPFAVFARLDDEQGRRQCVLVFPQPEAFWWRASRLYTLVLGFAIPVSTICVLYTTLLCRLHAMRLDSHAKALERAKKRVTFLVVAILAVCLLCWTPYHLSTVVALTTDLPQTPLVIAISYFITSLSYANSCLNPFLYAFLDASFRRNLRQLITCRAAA

Compound	IC50 [µM]
COc1ccc(Oc2c(Cl)cnn(-c3nc4ccccc4c(=O)c4ccccc34)c2=O)cc1	2.21
COc1ccc(Oc2c(Cl)cnn(C3c4ccccc4Oc4ccccc43)c2=O)cc1	3.11
CCc1cccc(Oc2c(Cl)cnn(Cc3cccc4ccccc34)c2=O)c1	8.55

Stronger by IC50, values ahead:

IC50 [µM]	Compound
1.79	COc1cc(Oc2c(Cl)cnn(Cc3cccc4ccccc34)c2=O)cc(OC)c1OC
0.834	O=c1c(Oc2ccc3c(c2)CCC3)c(Cl)cnn1Cc1cccc2ccccc12
0.527	COc1ccc(Oc2c(Cl)cnn(C3=Nc4cc(Cl)ccc4Oc4ncccc43)c2=O)cc1
